Experimental data taken from article PMC10349806 (Nature Communications, 2023).
Where “and” joins values, the source holds several entries; their conditions need not be identical. Equal entries are not always repeated.

Legend:
PfCRT^Dd2 = PfCRT^Dd2 (Plasmodium falciparum, UniProt Q9N623, A220S/I356T/K76T/M74I/N326S/N75E/Q271E/R371I); test: Drug uptake assay, X. laevis oocytes expressing PfCRT^Dd2; format: cell-based; details: for PfCRTDd2 transport activity pH 6.0: 50 µM external drug, 1 h, independent samples (means in Fig 4c)
Chain of PfCRT^Dd2 (Q9N623 whole entry A220S/I356T/K76T/M74I/N326S/N75E/Q271E/R371I): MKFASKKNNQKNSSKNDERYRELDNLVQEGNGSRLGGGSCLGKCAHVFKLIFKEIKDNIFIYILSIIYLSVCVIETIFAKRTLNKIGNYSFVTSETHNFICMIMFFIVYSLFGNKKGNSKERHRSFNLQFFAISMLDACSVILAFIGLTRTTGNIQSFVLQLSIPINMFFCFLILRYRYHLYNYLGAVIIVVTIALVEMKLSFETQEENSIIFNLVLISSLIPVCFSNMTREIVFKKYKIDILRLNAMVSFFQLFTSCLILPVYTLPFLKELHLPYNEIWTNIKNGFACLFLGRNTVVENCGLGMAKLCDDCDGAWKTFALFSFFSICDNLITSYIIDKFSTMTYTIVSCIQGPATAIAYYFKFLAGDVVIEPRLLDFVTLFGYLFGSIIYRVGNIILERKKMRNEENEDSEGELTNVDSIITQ
Procedure: (§1) Oocytes were obtained as described previously. Briefly, adult (>2 years old) female X. laevis frogs (NASCO) were anesthetized in a cooled solution of ethyl 3-amino benzoate methanesulfonate (0.1%, w/v), followed by a surgical removal of parts of the ovary. The ovary lobes were carefully dissected and small pieces of oocytes were incubated in Ca^2+-free ND96 buffer (96 mM NaCl, 2 mM KCl, 1 mM MgCl2 buffered with 5 mM HEPES/NaOH, pH 7.5) supplemented with collagenase D (0.1%, w/v; Roche), BSA (0.5%, w/v), and 9 mm Na2HPO4 at 18 °C for 14-16 h while gentle shaking. After incubation, the oocytes were carefully washed several times with ND96 buffer (96 mM NaCl, 2 mM KCl, 1.8 mM CaCl2, 1 mM MgCl2 buffered with 5 mM HEPES/NaOH, pH 7.5) supplemented with 100 mg l^−1 gentamycin). Defolliculated and healthy-looking stage V-VI oocytes were manually selected for RNA microinjection. The RNA was generated as following: The codon-optimized sequences of PfCRT variants were cloned into the pSP64T expression vector. After vector linearization using the restriction endonucleases BamHI or SalI (New England Biolabs), transcription was performed using the in vitro SP6 mMessage mMachine Kit (Ambion)[34]. The obtained RNA was kept at −80 °C and diluted with nuclease-free water to a concentration of 0.6 μg μl^−1. Precision-bore glass capillary tubes (3.5-inch glass capillaries; Drummond Scientific Co.) were pulled on a vertical puller (P-87 Flaming/Brown micropipette puller, Sutter Instrument Co.), graduated, and placed on a microinjector (Nanoject II Auto-Nanoliter Injector, Drummond Scientific Co.). 50 nl of nuclease-free water alone (control oocytes) or 50 nl of 0.6 μg μl^−1 RNA were injected under stereomicroscopic control. Injected oocytes were incubated for 46–72 h at 18 °C with twice-daily buffer changes before usage in experiments.
Drug uptake assays were performed as described previously[21],[22],[24],[34]. […] The direction of radio-labeled drug transport is here from the mostly acidic extracellular solution (pH 4.5 or 6.0, as indicated) into the oocyte cytosol (pH ∼ 7.2), which corresponds to the efflux of drug from the acidic digestive vacuole (pH 5.2) into the parasite cytoplasm (pH 7.2). The topology of PfCRT in the oolemma is such that both the N- and C-terminus face the extracellular milieu[3],[22]. In the parasite, the N- and C-terminus face the lumen of the digestive vacuole. […] For determination of the amount of drug uptake for each oocyte, the reaction medium was removed and the oocytes were washed three times with 2 ml of ice-cold ND96 buffer. Each oocyte was individually transferred to a scintillation vial containing 5% sodium dodecyl sulfate (200 μl) for lysis. […] Oocytes that were injected with water instead of RNA were analyzed in parallel, representing the uptake of a drug by diffusion and/or endogenous permeation pathways. The resulting value represents the “background“ level of drug accumulation in oocytes (in-depth discussion in[22]). The specific PfCRT-mediated uptake was determined by subtracting the corresponding background value measured in water-injected oocytes from that of PfCRT-expressing oocytes. In all cases, at least three separate experiments were performed on oocytes from different frogs (biological replicate), and for each condition in an experiment, measurements were made from 10 oocytes per treatment. For pH 5.5, 6.0, and 6.5, ND96 was buffered with 5 mM MES/Tris base. For pH 4.5, 5 mM Homo-Pipes was used as a buffer and 5 mM HEPES for uptake at pH 7.0.

PfCRT variant E207A = test: Drug uptake assay, oocytes expressing E207A; format: cell-based, Plasmodium falciparum; details: for E207A transport activity pH 4.5 / E207A transport activity pH 6.0: 50 µM external drug, 1 h
Procedure: Site-directed mutagenesis of PfCRT^Dd2 was performed as described using the megaprimer method with overlap extension[21],[54]. The primer pairs used are listed in Supplementary Table 6. Please note that a codon-optimized and oocyte-adapted version of PfCRT^Dd2 was used[22] (Supplementary Fig. 16). The resulting DNA fragment was cloned into the SP64T expression vector and verified by sequencing.
as §1
Drug uptake assays were performed as described previously[21],[22],[24],[34]. […] The direction of radio-labeled drug transport is here from the mostly acidic extracellular solution (pH 4.5 or 6.0, as indicated) into the oocyte cytosol (pH ∼ 7.2), which corresponds to the efflux of drug from the acidic digestive vacuole (pH 5.2) into the parasite cytoplasm (pH 7.2). The topology of PfCRT in the oolemma is such that both the N- and C-terminus face the extracellular milieu[3],[22]. In the parasite, the N- and C-terminus face the lumen of the digestive vacuole. […] For determination of the amount of drug uptake for each oocyte, the reaction medium was removed and the oocytes were washed three times with 2 ml of ice-cold ND96 buffer. Each oocyte was individually transferred to a scintillation vial containing 5% sodium dodecyl sulfate (200 μl) for lysis. […] Oocytes that were injected with water instead of RNA were analyzed in parallel, representing the uptake of a drug by diffusion and/or endogenous permeation pathways. The resulting value represents the “background“ level of drug accumulation in oocytes (in-depth discussion in[22]). The specific PfCRT-mediated uptake was determined by subtracting the corresponding background value measured in water-injected oocytes from that of PfCRT-expressing oocytes. In all cases, at least three separate experiments were performed on oocytes from different frogs (biological replicate), and for each condition in an experiment, measurements were made from 10 oocytes per treatment. For pH 5.5, 6.0, and 6.5, ND96 was buffered with 5 mM MES/Tris base.

[1] = system: CCN(CC)CCCC(C)Nc1ccnc2cc(Cl)ccc12; test: Drug uptake assay, X. laevis oocytes expressing PfCRT^Dd2; format: cell-based, Plasmodium falciparum; details: 18.0 °C
Procedure: Oocytes were obtained as described previously[24]. Briefly, adult (>2 years old) female X. laevis frogs (NASCO) were anesthetized in a cooled solution of ethyl 3-amino benzoate methanesulfonate (0.1%, w/v), followed by a surgical removal of parts of the ovary. The ovary lobes were carefully dissected and small pieces of oocytes were incubated in Ca^2+-free ND96 buffer (96 mM NaCl, 2 mM KCl, 1 mM MgCl2 buffered with 5 mM HEPES/NaOH, pH 7.5) supplemented with collagenase D (0.1%, w/v; Roche), BSA (0.5%, w/v), and 9 mm Na2HPO4 at 18 °C for 14-16 h while gentle shaking. After incubation, the oocytes were carefully washed several times with ND96 buffer (96 mM NaCl, 2 mM KCl, 1.8 mM CaCl2, 1 mM MgCl2 buffered with 5 mM HEPES/NaOH, pH 7.5) supplemented with 100 mg l^−1 gentamycin). Defolliculated and healthy-looking stage V-VI oocytes were manually selected for RNA microinjection. […]
Drug uptake assays were performed as described previously[21],[22],[24],[34]. […] Oocytes that were injected with water instead of RNA were analyzed in parallel, representing the uptake of a drug by diffusion and/or endogenous permeation pathways. […] The specific PfCRT-mediated uptake was determined by subtracting the corresponding background value measured in water-injected oocytes from that of PfCRT-expressing oocytes. […]

[2] = CQ transport in the presence of verapamil, independent samples

Compound | PfCRTDd2 transport activity pH 6.0 (PfCRT^Dd2) | E207A transport activity pH 4.5 (PfCRT variant E207A; independent samples) | E207A transport activity pH 6.0 (PfCRT variant E207A; independent samples) | other results
NC12CC3CC(CC(C3)C1)C2 [AMA, amantadine] | 3.96 pmol oocyte-1 h-1 and 5.23 pmol oocyte-1 h-1 and 3.48 pmol oocyte-1 h-1 | – | – | –
Clc1ccc2c(N3CCN(CCCN4CCN(c5ccnc6cc(Cl)ccc56)CC4)CC3)ccnc2c1 [PPQ, piperaquine] | 28.14 pmol oocyte-1 h-1 and 21.87 pmol oocyte-1 h-1 and 30.01 pmol oocyte-1 h-1 and 33.33 pmol oocyte-1 h-1 | 9.66 pmol oocyte-1 h-1 and 9.12 pmol oocyte-1 h-1 and 9.57 pmol oocyte-1 h-1 and 5.62 pmol oocyte-1 h-1 | 8.93 pmol oocyte-1 h-1 and 12.01 pmol oocyte-1 h-1 and 12.48 pmol oocyte-1 h-1 and 12.86 pmol oocyte-1 h-1 | –
C=C[C@H]1C[N@@]2CC[C@H]1C[C@@H]2[C@@H](O)c1ccnc2ccc(OC)cc12 [QD, quinidine] | 4.23 pmol oocyte-1 h-1 and 3.26 pmol oocyte-1 h-1 and 4.00 pmol oocyte-1 h-1 and 4.74 pmol oocyte-1 h-1 and 4.12 pmol oocyte-1 h-1 and 4.59 pmol oocyte-1 h-1 | 1.55 pmol oocyte-1 h-1 and 1.47 pmol oocyte-1 h-1 and 1.04 pmol oocyte-1 h-1 and 1.61 pmol oocyte-1 h-1 | 2.30 pmol oocyte-1 h-1 and 2.18 pmol oocyte-1 h-1 and 1.61 pmol oocyte-1 h-1 and 1.77 pmol oocyte-1 h-1 and 2.20 pmol oocyte-1 h-1 | –
C=C[C@H]1C[N@@]2CC[C@H]1C[C@H]2[C@H](O)c1ccnc2ccc(OC)cc12 [QN, quinine] | 6.11 pmol oocyte-1 h-1 and 5.59 pmol oocyte-1 h-1 and 5.35 pmol oocyte-1 h-1 and 4.57 pmol oocyte-1 h-1 | 1.81 pmol oocyte-1 h-1 and 1.79 pmol oocyte-1 h-1 and 2.22 pmol oocyte-1 h-1 and 1.30 pmol oocyte-1 h-1 and 1.76 pmol oocyte-1 h-1 | 2.22 pmol oocyte-1 h-1 and 1.72 pmol oocyte-1 h-1 and 2.41 pmol oocyte-1 h-1 and 2.60 pmol oocyte-1 h-1 | –
CC[C@]1(O)C[C@@H]2CN(CCc3c([nH]c4ccccc34)[C@@](C(=O)OC)(c3cc4c(cc3OC)N(C)[C@H]3[C@@](O)(C(=O)OC)[C@H](OC(C)=O)[C@]5(CC)C=CCN6CC[C@]43[C@@H]65)C2)C1 [VNB, vinblastine] | n.u. | – | n.u. | transport of the drug by E207A (PfCRT variant E207A; pH 6.0, in words): Neither PfCRT^Dd2 nor E207A acted on; transport of the drug by PfCRT^Dd2 (PfCRT^Dd2; pH 6.0, in words): Neither PfCRT^Dd2 nor E207A acted on
CC[C@]1(O)C[C@H]2CN(CCc3c([nH]c4ccccc34)[C@@](C(=O)OC)(c3cc4c(cc3OC)N(C=O)[C@H]3[C@@](O)(C(=O)OC)[C@H](OC(C)=O)[C@]5(CC)C=CCN6CC[C@]43[C@@H]65)C2)C1 [VNC, vincristine] | n.u. | – | n.u. | transport of the drug by E207A (PfCRT variant E207A; pH 6.0, in words): Neither PfCRT^Dd2 nor E207A acted on; transport of the drug by PfCRT^Dd2 (PfCRT^Dd2; pH 6.0, in words): Neither PfCRT^Dd2 nor E207A acted on
COc1ccc(CCN(C)CCCC(C#N)(c2ccc(OC)c(OC)c2)C(C)C)cc1OC (stereo not drawn) [VP, verapamil] | – | – | – | E207A CQ + VP transport activity pH 6.0 (PfCRT variant E207A; [2]): 0.66 pmol oocyte-1 h-1 and 0.74 pmol oocyte-1 h-1 and 0.45 pmol oocyte-1 h-1; effect on CQ transport by E207A (PfCRT variant E207A; pH 6.0, in words): blocked CQ transport; PfCRTDd2 CQ + VP transport activity pH 6.0 (PfCRT^Dd2; [2]): 1.45 pmol oocyte-1 h-1 and 1.56 pmol oocyte-1 h-1 and 1.71 pmol oocyte-1 h-1 and 1.84 pmol oocyte-1 h-1; effect on CQ transport by PfCRT^Dd2 (PfCRT^Dd2; pH 6.0, in words): blocked CQ transport
PfCRT^Dd2 (Plasmodium falciparum; A220S/I356T/K76T/M74I/N326S/N75E/Q271E/R371I) | – | – | – | Km ([1]; other: PfCRT^Dd2, pH 4.5, pH 4.5): 200 ± 60 µM; Km ([1]; other: PfCRT^Dd2, pH 6.0, pH 6.0): 270 ± 50 µM
